Laboratory results from paper PMC5267425, “Identification of small molecule modulators of HIV-1 Tat and Rev protein accumulation” (Retrovirology, 2017).

How the values were obtained:
[1] = tested on: HIV-1 BaL; assay: HIV-1 BaL replication in PBMCs, p24 antigen ELISA; type: cell-based; conditions: for IC50: Human immunodeficiency virus 1, BAL, PBMC
Description: To examine the effect of compounds on viral replication, studies were carried out in peripheral blood mononuclear cells (PBMCs). PBMCs were isolated from healthy (HIV-uninfected) volunteer blood donors as described by Dobson-Belaire et al.. Informed consent was obtained from participants in accordance with the guidelines for conduct of clinical research at the University of Toronto and St. Michael’s Hospital, Toronto, Ontario, Canada. Stored PBMCs were thawed, washed with RPMI 1640 complete medium and cultured in RPMI 1640 complete medium containing 2 μg/mL of PHA-L (Sigma-Aldrich) and 20 U/mL of IL-2 (BD Pharmingen) for 72 h. Subsequently, cells were counted and a portion of the cells was separated to another tube for uninfected control treatments. The remaining PBMCs were resuspended in media containing HIV-1 BaL at a multiplicity of infection (MOI) of approximately 0.01 and infected by spinoculation, following which cells were washed twice with room temperature RPMI 1640 complete medium and resuspended to a concentration of 5 × 10^5 cells/mL in complete RPMI 1640 containing 20 U/mL of IL-2. Compounds were added to infected PBMCs or uninfected control PBMCs. Azidothymidine (AZT, Sigma-Aldrich) was used as control treatment at a final concentration of 3.74 μM. On day 4 post infection, culture medium was replenished with the compounds and IL-2 in fresh complete RPMI 1640. On days 2, 4, 6 and 8 post infection, culture supernatant was harvested, virus lysed by adjusting to 1% TritonX-100 and stored at −20 °C for p24 antigen ELISA. A fraction of the culture was harvested to assess percent cell viability by trypan blue exclusion using Glasstic slides (Kova). Relative percent cell viability in compound treated samples versus DMSO-control treated samples was calculated as follows: (total viable cells/total cells)compound/(total viable cells/total cells)DMSO.
ELISA for p24 Gag antigen was performed on cell supernatants using kits purchased from Frederick National Laboratory for Cancer Research (Leidos) or XpressBio extended range kit and performed according to manufacturer’s instructions. Protein concentration in cell lysates was quantified by Bradford assay and equal amounts of protein run on 7, 10, 12, or 14% SDS-PAGE, depending on the protein of interest. Following transfer to PVDF (BioRad or Perkin-Elmer), blots were blocked in either 5% Milk-PBS-T (5% Milk, 0.05% Tween-20, 1× PBS) or 3% BSA-PBS-T (3% BSA, 0.05% Tween-20, 1× PBS) prior to incubating with primary antibody (all diluted in 3% BSA-PBS-T). […] Quantification of the relative intensity of the detected bands was done using ImageLab software and normalized to corresponding bands of the loading control (GAPDH or α-Tubulin).

[2] = tested on: total protein synthesis in HeLa HIVrtTA∆Mls cells; assay: SUnSET total protein synthesis; type: cell-based; conditions: doses that significantly reduced HIV-1 protein expression, ∓Dox
Description: The effect of the compounds on nascent protein synthesis was measured by surface sensing of translation (SUnSET) as described by Schmidt et al.. Cells were incubated with puromycin, an aminoacyl tRNA analog, to allow puromycin incorporation into newly translated peptides and prevention of further ribosomal elongation by chain termination. To assess the effect of the compounds on protein translation, cells were prepared and treated as described above, but were incubated with 10 μg/mL of puromycin for a period of 30 min prior to harvesting cell lysates for protein analysis. Protein concentration of cell lysates was quantified by Bradford assay and equal amounts of protein (30–35 μg) was run on either 10% or 4–15% (gradient) gels. Following transfer to PVDF (BioRad), blots were probed with mouse monoclonal antibody to puromycin (anti-12D10, EMD Millipore). Blots were developed using ECL Plus (Perkin-Elmer) or Clarity (BioRad) and imaged using the ChemiDoc MP Imager (BioRad). To quantify the levels of protein synthesis, the volume intensity in each lane of compound-treated sample was calculated relative to the DMSO-treated sample and normalized to GAPDH loading control using ImageLab software (BioRad) from at least four independent experiments.

Structure (SMILES)	IC50 [1]	doses inhibiting HIV-1 virus production that did not affect cell viability ([1]; PBMCs, 2–4 donors)	reduction in protein synthesis relative to DMSO [2]
Cc1cc(NCc2cccnc2)n2ncc(-c3ccc(Cl)cc3)c2n1 [Compound 791, 3-(4-chlorophenyl)-5-methyl-N-(3-pyridinylmethyl)pyrazolo[1,5-a]pyrimidin-7-amine]	1500 nM	< 5 µM	little or no effect
O=C(NC(=S)NNC(=O)c1ccccc1O)c1ccc(-c2ccccc2)cc1 [Compound 833, N-([2-(2-hydroxybenzoyl)hydrazino]carbonothioyl}-4-biphenylcarboxamide]	1600 nM	–	little or no effect
COc1ccc(C=NNC(=O)c2ccccc2O)cc1O [Compound 892, 2-hydroxy-N′-(3-hydroxy-4-methoxybenzylidene)benzohydrazide]	2000 nM	–	~ 25%
